Laboratory results taken from paper PMC3558932 (Chemistry & biology, 2013).

Experiments:
Rv0036c = Rv0036c (Mycobacterium tuberculosis, UniProt P9WM91)
Rv0831c = Rv0831c (Mycobacterium tuberculosis, UniProt O53842)
Rv0941c = Rv0941c (Mycobacterium tuberculosis, UniProt P71568); conditions: 20 uM probe, lysate in PBS, 37 °C, 1 h; covalent
Rv0282 = Rv0282 (Mycobacterium tuberculosis, UniProt P9WPI3); conditions: 20 uM probe, lysate in PBS, 37 °C, 1 h; covalent
Chain of Rv0282 (P9WPI3 whole entry, looked up): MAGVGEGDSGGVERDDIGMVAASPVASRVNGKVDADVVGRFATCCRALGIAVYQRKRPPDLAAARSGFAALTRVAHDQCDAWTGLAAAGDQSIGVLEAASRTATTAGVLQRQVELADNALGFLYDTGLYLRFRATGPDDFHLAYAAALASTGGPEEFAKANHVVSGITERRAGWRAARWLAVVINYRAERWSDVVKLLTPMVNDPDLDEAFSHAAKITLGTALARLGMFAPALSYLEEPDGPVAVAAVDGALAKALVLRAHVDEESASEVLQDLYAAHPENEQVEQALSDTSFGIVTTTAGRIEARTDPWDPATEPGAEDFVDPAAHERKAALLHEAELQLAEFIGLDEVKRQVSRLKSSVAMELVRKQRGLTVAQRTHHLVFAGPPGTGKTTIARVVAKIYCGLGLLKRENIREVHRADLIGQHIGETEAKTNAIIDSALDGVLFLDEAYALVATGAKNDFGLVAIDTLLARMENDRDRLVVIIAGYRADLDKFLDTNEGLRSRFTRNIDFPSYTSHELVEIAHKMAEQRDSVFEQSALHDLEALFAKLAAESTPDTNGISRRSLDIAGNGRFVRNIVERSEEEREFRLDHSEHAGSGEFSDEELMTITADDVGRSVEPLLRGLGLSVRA

Chain of Rv0036c (P9WM91 whole entry): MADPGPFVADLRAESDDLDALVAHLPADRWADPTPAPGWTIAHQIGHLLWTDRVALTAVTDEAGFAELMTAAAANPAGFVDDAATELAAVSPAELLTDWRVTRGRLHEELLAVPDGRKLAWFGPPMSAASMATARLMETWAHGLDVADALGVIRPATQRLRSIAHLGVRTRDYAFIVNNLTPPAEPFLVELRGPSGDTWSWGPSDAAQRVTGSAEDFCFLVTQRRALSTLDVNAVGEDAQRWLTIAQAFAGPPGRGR

Molecule: Nc1ncnc2c1ncn2[C@@H]1O[C@H](COP(=O)(O)OP(=O)(O)OP(=O)(O)O)[C@@H](O)[C@H]1O [ATP]
- competition with ATP-ABP labelling, gel fluorescence (Rv0036c): ATP and ATPγS competed with probe binding
- competition with ATP-ABP labelling, gel fluorescence (Rv0831c): ATP and ATPγS competed with probe binding

Molecule: Nc1ncnc2c1ncn2[C@@H]1O[C@H](COP(=O)(O)OP(=O)(O)OP(O)(O)=S)[C@@H](O)[C@H]1O [ATPγS]
- competition with ATP-ABP labelling, gel fluorescence (Rv0036c): ATP and ATPγS competed with probe binding
- competition with ATP-ABP labelling, gel fluorescence (Rv0831c): ATP and ATPγS competed with probe binding

Molecule: ATP-ABP
- fold enrichment over control (Rv0941c): 15 fold
- fold enrichment over negative control (Rv0282): 4 fold
